Laboratory results reported in the NIST ThermoML archive (doi:10.1016/j.tca.2008.10.009).

Conditions: Crystal, Rate of evaporation

CC(C)C[C@H](N)C(=O)O [L-leucine]
vapor or sublimation pressure (420.7 K): 0.0009 kPa
vapor or sublimation pressure (440.3 K): 0.0029 kPa
vapor or sublimation pressure (469.9 K): 0.0425 kPa
vapor or sublimation pressure (499.2 K): 0.5263 kPa
vapor or sublimation pressure (517.5 K): 2.162 kPa
